Laboratory results taken from patent US11040976B2, “Substrate selective inhibitors of insulin-degrading enzyme (IDE) and uses thereof” (President and Fellows of Harvard College, priority 2015, dated 2021).

Columns and labels:
[1] = molecular target: T1, recombinant human IDE42-1019 (Homo sapiens, UniProt P14735); assay: Protease assay with fluorogenic peptide substrate Mca-[…](Dnp)-OH; format: biochemical; conditions: fluorogenic peptide Mca-RPPGFSAFK(Dnp)-OH; for IC50: apparent IC50 for compounds with submaximal inhibition, read-out: IC50 (μM) Proteolysis; for Emax: read-out: Imax (%) Proteolysis (inhibition maximum)
T1 construct: recombinant human IDE42-1019 (R&D Systems); purchased R&D Systems
T1 sequence (P14735 42-1019): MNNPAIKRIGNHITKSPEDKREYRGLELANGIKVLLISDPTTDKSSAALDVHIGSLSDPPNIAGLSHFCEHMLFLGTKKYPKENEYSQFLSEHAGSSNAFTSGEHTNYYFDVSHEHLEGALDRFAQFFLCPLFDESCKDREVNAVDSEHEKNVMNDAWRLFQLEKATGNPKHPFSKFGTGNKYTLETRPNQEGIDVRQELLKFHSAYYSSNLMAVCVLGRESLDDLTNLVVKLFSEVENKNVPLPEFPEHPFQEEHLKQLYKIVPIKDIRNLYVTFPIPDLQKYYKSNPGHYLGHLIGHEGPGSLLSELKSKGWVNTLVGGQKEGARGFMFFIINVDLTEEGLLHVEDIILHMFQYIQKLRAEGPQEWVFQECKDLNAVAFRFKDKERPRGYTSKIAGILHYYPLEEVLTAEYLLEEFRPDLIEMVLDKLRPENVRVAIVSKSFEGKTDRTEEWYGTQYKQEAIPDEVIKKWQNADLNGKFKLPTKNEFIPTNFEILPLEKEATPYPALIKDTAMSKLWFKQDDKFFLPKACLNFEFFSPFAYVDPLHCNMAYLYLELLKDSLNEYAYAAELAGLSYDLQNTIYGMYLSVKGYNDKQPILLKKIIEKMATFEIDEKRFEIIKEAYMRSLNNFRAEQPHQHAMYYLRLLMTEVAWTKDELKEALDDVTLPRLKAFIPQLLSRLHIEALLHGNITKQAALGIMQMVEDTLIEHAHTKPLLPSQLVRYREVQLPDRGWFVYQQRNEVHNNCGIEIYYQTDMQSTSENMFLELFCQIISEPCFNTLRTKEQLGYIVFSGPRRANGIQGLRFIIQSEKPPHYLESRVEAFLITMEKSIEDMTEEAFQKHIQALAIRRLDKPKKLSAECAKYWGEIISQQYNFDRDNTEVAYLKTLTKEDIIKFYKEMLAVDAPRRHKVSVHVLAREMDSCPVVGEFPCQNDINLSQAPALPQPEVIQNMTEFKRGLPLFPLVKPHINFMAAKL

[2] = molecular target: T2, Human N-His6-IDE42-1019 (E. coli expressed) (Homo sapiens, UniProt P14735); assay: Fluorescence anisotropy high-throughput screening assay (displacement of probe FL-6b); format: binding
T2 construct: Human N-His6-IDE42-1019 (E. coli expressed); made in house; host or cells: E. coli (Rosetta 2 (DE3) pLysS, plasmid pTrcHis-A)
T2 sequence (P14735 42-1019): T1 sequence (P14735 42-1019)
Description: The fluorescence anisotropy screening method and probe FL-6b are described in PCT application PCT/US2014/064322, incorporated herein by reference.
Human N-His6-IDE42-1019 (E. coli expressed) was mixed with fluorescein-labeled macrocycle FL-6b:
[drawing 802] in 50 mM Tris buffer pH 8.0, with 1 M NaCl, at 25° C. Optimum signal was obtained using a mixture of […] probe FL-6b and 0.5 μM IDE. The “diversity-oriented (DOS) synthesis informer set” compound plates were pinned onto 384-well plates containing the enzyme-probe mixture (50 μL/well). The azetidine screen was pre-printed on 384-well plates and the enzyme-probe mixture was added (50 μL/well). The final compound concentration was 20 μM. IDE inhibitor 6bK was used as a positive control at a final concentration of 1 μM. After 30 minutes of equilibration, the increase in fluorescence anisotropy was recorded using an EnVision spectrophotometer (excitation 492 nm, emission 523 nm). The fluorescence anisotropy was independently measured twice for each screened compound. The Z-scores for each pair of measurements are plotted in FIG. 1A (DOS informer set) and FIG. 1B (azetidines), and average Z-scores are listed for exemplary compounds in Table E1.
Z-scores were calculated based on the raw anisotropy measured for each well according to Eq. 1, wherein x is the raw anisotropy value of the well, μ is the mean of the anisotropy of the negative control wells (DMSO) for the plate, and σ is the standard deviation in anisotropy of the negative control wells (DMSO) for the plate.

[3] = plateau at high inhibitor concentration
[4] = final compound concentration 20 μM (6bK control 1 μM), values without asterisk
[5] = values marked *: from the screen using the diversity-oriented synthesis (DOS) informer set of plates, 20 μM

Compound	IC50 [1]	Emax [1, 3]	Average Z-score (Fluorescence anisotropy) [2, 4]	Imax (%) Proteolysis (inhibition maximum) [1, 3]	Average Z-score (Fluorescence anisotropy) [2, 5]
Cc1ccccc1-c1ccc([C@@H]2[C@H](CO)N3CCCCN(C(=O)NC4CCCC4)C[C@@H]23)cc1 [compound 932]	> 20 µM	90%	−19.01	–	–
Cc1cccc(-c2ccc([C@@H]3[C@@H](CO)N4CCCCN(Cc5cncnc5)C[C@@H]34)cc2)c1 [compound 654]	> 100 µM	–	−6.65	–	–
COc1ccccc1NC(=O)N1CCCCN2[C@H](CO)[C@@H](c3ccc(-c4cccc(C)c4)cc3)[C@@H]2C1 [compound 154]	> 10 µM	20%	−2.84	–	–
Cc1cccc(-c2ccc([C@H]3[C@@H](CO)N4CCCCN(C(=O)c5ccncc5)C[C@H]34)cc2)c1 [compound 836]	–	60%	−18.28	–	–
Cc1ccccc1-c1ccc([C@H]2[C@@H](CO)N3CCCCN(C(=O)NC4CCCC4)C[C@H]23)cc1 [compound 255]	–	50%	−17.33	–	–
COc1ccccc1-c1ccc([C@H]2[C@@H](CO)N(C(=O)NC(C)C)[C@H]2C#N)cc1 [D2]	–	100%	−16.33	–	–
Cc1ccccc1-c1ccc(C2C3CN(Cc4cncnc4)CC2N3)cc1 (centres unmarked) [C8]	7.5 µM	70%	−2.58	–	–
Cc1ccccc1-c1ccc([C@H]2[C@@H](CO)N3CCCCN(C(=O)Cc4ccccn4)C[C@@H]23)cc1 [compound 890]	> 100 µM	–	−5.69	–	–
COc1ccccc1-c1ccc([C@@H]2[C@@H](C#N)N(C(=O)c3cccnc3)[C@@H]2CO)cc1 [D9]	7.5 µM	60%	−12.03	–	–
Cc1ccccc1-c1ccc(C2C3CN(Cc4cocn4)CC2N3)cc1 (centres unmarked) [C9]	25 µM	> 60%	−3.01	–	–
Cc1ccccc1-c1ccc([C@H]2[C@@H](CO)N3CCCCN(S(=O)(=O)Cc4ccccc4)C[C@@H]23)cc1 [compound 236]	> 200 µM	–	−1.64	–	–
Cc1cccc(-c2ccc([C@@H]3[C@@H](CO)N4CCCCN(CCC(F)(F)F)C[C@@H]34)cc2)c1 [compound 073]	> 50 µM	–	−0.68	–	–
Cc1ccccc1-c1ccc([C@H]2[C@@H](CO)N3CCCCN(S(C)(=O)=O)C[C@@H]23)cc1 [compound 077]	> 100 µM	–	−2.31	–	–
Cc1ccccc1-c1ccc([C@H]2[C@H](CO)N3C(=O)CN(C(=O)c4ccc(F)cc4)C[C@@H]23)cc1 [compound 124]	–	70%	−16.49	–	–

Other lines, results leading:

IC50 [1]	Emax [1, 3]	Average Z-score (Fluorescence anisotropy) [2, 4]	Imax (%) Proteolysis (inhibition maximum) [1, 3]	Average Z-score (Fluorescence anisotropy) [2, 5]	Compound
2 µM	60%	−17.16	–	–	Cc1ccccc1-c1ccc([C@H]2[C@@H](CO)N3C(=O)CN(C(=O)c4cccnc4)C[C@H]23)cc1 [compound 3421]
–	40%	−19.52	–	–	Cc1cccc(-c2ccc([C@@H]3[C@H](CO)N4CCCCN(S(=O)(=O)c5cn(C)cn5)C[C@@H]34)cc2)c1 [compound 795]
2.5 µM	50%	−17.72	–	–	Cc1ccccc1-c1ccc([C@@H]2[C@H]3CN(C(=O)Cc4ccccn4)CC(=O)N3[C@H]2CO)cc1 [compound 140]
> 100 µM	–	−3.13	–	–	Cc1cccc(-c2ccc([C@@H]3[C@@H](CO)N4CCCCN(C(=O)c5cccnc5)C[C@@H]34)cc2)c1 [compound 443]
7 µM	40%	−11.8	–	–	Cc1cccc(-c2ccc([C@@H]3[C@@H](CO)N4C(=O)CN(C(=O)Cc5ccccn5)C[C@@H]34)cc2)c1 [compound 348]
> 100 µM	–	−5.28	–	–	COC(=O)N1CCCCN2[C@H](CO)[C@@H](c3ccc(-c4cccc(C)c4)cc3)[C@@H]2C1 [compound 559]
2.5 µM	50%	−19.85	–	–	Cc1ccccc1-c1ccc([C@@H]2[C@@H](CO)N3C(=O)CN(C(=O)Cc4ccccn4)C[C@@H]23)cc1 [compound 081]
2.5 µM	35%	−16.6	–	–	Cc1ccccc1-c1ccc([C@H]2[C@@H](CO)N3CCCCN(S(=O)(=O)c4cn(C)cn4)C[C@H]23)cc1 [compound 736]
–	50%	−7.98	–	–	Cc1ccccc1-c1ccc([C@@H]2[C@@H](CO)N3CCCCN(C(=O)c4cccnc4)C[C@@H]23)cc1 [compound 353]
7 µM	40%	−1.37	–	–	Cc1ccccc1-c1ccc([C@H]2[C@@H](CO)N3CCCCN(C(=O)Nc4ccccc4)C[C@@H]23)cc1 [compound 1570]
–	–	−11.37	70%	–	Cc1ccccc1-c1ccc([C@H]2[C@@H](CO)N3CCCCN(C(=O)c4cccnc4)C[C@H]23)cc1 [compound 397]
2.5 µM	40%	–	–	−12.65*	Cc1ccccc1-c1ccc([C@@H]2[C@@H](CO)N3C(=O)CN(S(C)(=O)=O)C[C@@H]23)cc1 [compound 585]
–	40%	−17.51	–	–	Cc1ccccc1-c1ccc([C@@H]2[C@@H](CO)N3CCCCN(S(=O)(=O)c4ccc(F)cc4)C[C@@H]23)cc1 [compound 217]
> 100 µM	–	−4.78	–	–	Cc1ccccc1-c1ccc([C@H]2[C@@H](CO)N3CCCCN(C(=O)c4cccnc4)C[C@@H]23)cc1 [compound 712]
–	70%	−7.49	–	–	Cc1ccccc1-c1ccc([C@H]2[C@H](CO)N3C(=O)CN(C(=O)c4ccncc4)C[C@@H]23)cc1 [compound 580]
7 µM	70%	−17.17	–	–	COc1ccccc1-c1ccc([C@H]2[C@@H](CO)N3CCCCN(C(=O)c4ccncc4)C[C@H]23)cc1 [compound 586]
2.5 µM	40%	−18.53	–	–	Cc1ccccc1-c1ccc([C@@H]2[C@H]3CN(S(=O)(=O)c4cn(C)cn4)CCCCN3[C@H]2CO)cc1 [compound 868]
> 100 µM	–	–	–	−17.53*	COc1ccccc1C#Cc1ccc([C@H]2[C@H]3CN(C(=O)C4CCC4)CCCCN3[C@H]2CO)cc1 [compound 141]
0.6 µM	50%	−17.53	–	–	Cc1cccc(-c2ccc([C@@H]3[C@@H](CO)N4CCCCN(S(=O)(=O)c5cn(C)cn5)C[C@@H]34)cc2)c1 [compound 342]
–	30%	−4.36	–	–	Cc1ccccc1-c1ccc([C@H]2[C@@H](CO)N3CCCCN(C(=O)Nc4cccc(F)c4)C[C@@H]23)cc1 [compound 269]
< 10 µM	~100%	−16.2	–	–	OC[C@H]1[C@@H](c2ccc(C#Cc3ccccc3)cc2)[C@@H]2CN(Cc3cncnc3)CCCCN12 [compound 525]
